In patent US20080207665A1, “Alpha-(Aryl-or Heteroaryl-Methyl)-Beta-Piperidinopropanoic Acid Compounds as Orl-1-Receptor Antagonists” (Pfizer Inc., priority 2005, published 2008):

How the values were obtained:
human ORL1 receptor = target: T1, human ORL1 receptor (Homo sapiens, UniProt P41146); experiment: ORL1-receptor binding assay ([3H]nociceptin, SPA); conditions: human ORL1 receptor transfected HEK-293 cell membranes, 0.4 nM [3H]nociceptin
T1 construct: purchased PerkinElmer; host or cells: HEK-293
Experimental: The human ORL1 receptor transfected HEK-293 cell membranes (PerkinElmer) were incubated for 45 min at room temperature with 0.4 nM [^3H]nociceptin, 1.0 mg of wheat germ agglutinin(WGA)-coated SPA beads and various concentrations of test compounds in a final volume of 200 μL of 50 mM HEPES buffer pH 7.4 containing 10 mM MgCl2 and 1 mM EDTA. Non-specific binding (NSB) was determined by the addition of 1 μM unlabeled nociceptin. After the reaction, the assay plate was centrifuged at 1,000 rpm for 1 min and then the radioactivity was measured by WALLAC 1450 MicroBeta Trilux.
The compounds of the examples were tested in the ORL1 Receptor Binding assay.

HERG potassium channel = target: T2, HERG potassium channel (Homo sapiens, UniProt Q12809); assay type: binding
T2 construct: expressed in transfected cells; host or cells: HEK-293
Experimental: Cell paste of HEK-293 cells expressing the HERG product was suspended in 10-fold volume of 50 mM Tris buffer adjusted at pH 7.5 at 25° C. with 2 M HCl containing 1 mM MgCl2, 10 mM KCl. The cells were homogenized using a Polytron homogenizer (at the maximum power for 20 seconds) and centrifuged at 48,000 g for 20 minutes at 4° C. The pellet was resuspended, homogenized and centrifuged once more in the same manner. The resultant supernatant was discarded and the final pellet was resuspended (10-fold volume of 50 mM Tris buffer) and homogenized at the maximum power for 20 seconds. The membrane homogenate was aliquoted and stored at −80° C. until use. An aliquot was used for protein concentration determination using a Protein Assay Rapid Kit and ARVO SX plate reader (Wallac). […] Saturation was determined by incubating 20 μl of [^3H]-dofetilide and 160 μl of membrane homogenates (20-30 μg protein per well) for 60 min at room temperature in the absence or presence of 10 μM dofetilide at final concentrations (20 μl) for total or nonspecific binding, respectively. […] Receptor-bound radioactivity was quantified by liquid scintillation counting using Packard LS counter.
For the competition assay, compounds were diluted in 96 well polypropylene plates as 4-point dilutions in semi-log format. […] Receptor-bound radioactivity was quantified by counting Wallac MicroBeta plate counter.

T1 sequence (P41146 whole entry): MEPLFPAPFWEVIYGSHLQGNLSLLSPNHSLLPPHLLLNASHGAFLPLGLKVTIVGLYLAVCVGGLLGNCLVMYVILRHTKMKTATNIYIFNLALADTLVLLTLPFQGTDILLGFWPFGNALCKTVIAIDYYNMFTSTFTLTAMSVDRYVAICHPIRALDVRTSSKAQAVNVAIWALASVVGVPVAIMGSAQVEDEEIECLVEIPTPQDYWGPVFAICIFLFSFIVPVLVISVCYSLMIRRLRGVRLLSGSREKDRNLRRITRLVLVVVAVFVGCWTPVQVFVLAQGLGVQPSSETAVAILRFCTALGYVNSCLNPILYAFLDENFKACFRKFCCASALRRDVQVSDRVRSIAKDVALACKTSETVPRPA
T2 sequence (Q12809 whole entry): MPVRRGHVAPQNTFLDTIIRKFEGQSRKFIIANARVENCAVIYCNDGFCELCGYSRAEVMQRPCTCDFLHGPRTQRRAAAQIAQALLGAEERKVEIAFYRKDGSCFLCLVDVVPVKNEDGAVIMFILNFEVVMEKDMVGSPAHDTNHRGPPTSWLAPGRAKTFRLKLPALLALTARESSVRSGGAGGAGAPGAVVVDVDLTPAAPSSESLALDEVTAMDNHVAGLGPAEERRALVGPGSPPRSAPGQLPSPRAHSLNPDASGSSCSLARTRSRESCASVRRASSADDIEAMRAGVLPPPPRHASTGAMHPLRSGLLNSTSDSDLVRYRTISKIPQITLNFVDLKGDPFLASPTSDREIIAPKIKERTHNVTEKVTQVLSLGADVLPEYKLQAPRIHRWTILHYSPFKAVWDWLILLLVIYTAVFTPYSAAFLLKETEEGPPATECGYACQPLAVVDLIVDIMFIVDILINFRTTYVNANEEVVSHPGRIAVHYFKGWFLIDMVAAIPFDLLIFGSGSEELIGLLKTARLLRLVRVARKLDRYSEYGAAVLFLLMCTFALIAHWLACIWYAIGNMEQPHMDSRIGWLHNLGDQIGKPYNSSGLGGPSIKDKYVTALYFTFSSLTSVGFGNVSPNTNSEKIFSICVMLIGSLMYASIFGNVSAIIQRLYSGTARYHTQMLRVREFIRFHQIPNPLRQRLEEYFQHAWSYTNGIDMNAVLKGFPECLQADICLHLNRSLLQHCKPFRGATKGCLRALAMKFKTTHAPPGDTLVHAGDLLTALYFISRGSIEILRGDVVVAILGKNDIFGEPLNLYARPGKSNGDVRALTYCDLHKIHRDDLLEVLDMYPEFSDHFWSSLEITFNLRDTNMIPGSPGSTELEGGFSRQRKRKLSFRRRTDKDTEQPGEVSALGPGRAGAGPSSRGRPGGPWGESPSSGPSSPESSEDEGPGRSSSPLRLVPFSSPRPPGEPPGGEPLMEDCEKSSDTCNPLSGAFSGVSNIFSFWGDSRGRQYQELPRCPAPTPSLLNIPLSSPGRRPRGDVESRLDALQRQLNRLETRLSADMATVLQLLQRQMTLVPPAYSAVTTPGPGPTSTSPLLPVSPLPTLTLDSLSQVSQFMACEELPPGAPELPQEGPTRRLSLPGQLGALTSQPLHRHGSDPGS

O=C(O)C(Cc1cc(O)ccc1Cl)CN1C2CCC1CC1(C2)OCCc2cc(F)ccc21 (stereo not drawn) [Example 9, 2-(2-Chloro-5-hydroxybenzyl)-3-(6′-fluoro-3′,4′-dihydro-8H-spiro[8-azabicyclo[3.2.1]octane-3,1′-isochromen]-8-yl)propanoic acid]
Ki (human ORL1 receptor): 1.2 nM

O=C(O)C(Cc1cc(O)ccc1Cl)CN1C2CCC1CC1(C2)OCc2ccc(F)cc21 (stereo not drawn) [Example 10, 2-(2-Chloro-5-hydroxybenzyl)-3-(6′-fluoro-3′H,8H-spiro[8-azabicyclo[3.2.1]octane-3,1′-[2]benzofuran]-8-yl)propanoic acid]
Ki (human ORL1 receptor): 3.3 nM

O=C(O)C(Cc1ccccc1Cl)CN1C2CCC1CC1(C2)OCc2ccc(F)cc21 (stereo not drawn) [Example 8, 2-(2-Chlorobenzyl)-3-(6′-fluoro-3′H,8H-spiro[8-azabicyclo[3.2.1]octane-3,1′-[2]benzofuran]-8-yl)propanoic acid]
Ki (human ORL1 receptor): 3.4 nM

O=C(O)C(Cc1ccccc1Cl)CN1C2CCC1CC1(C2)OCCc2cc(F)ccc21 (stereo not drawn) [Example 7, 2-(2-Chlorobenzyl)-3-(6′-fluoro-3′,4′-dihydro-8H-spiro[8-azabicyclo[3.2.1]octane-3,1′-isochromen]-8-yl)propanoic acid]
Ki (human ORL1 receptor): 1.3 nM

CN1C(=O)C(CN2CCC3(CCc4ccccc43)CC2)Cc2ccccc21 (stereo not drawn) [Compound (i)]
activity in the dofetilide binding assay (HERG potassium channel): potent activity | predicted HERG potassium channel inhibitory activity (HERG potassium channel): high
